In article PMC10814725, “In Vitro Anti-Inflammatory Study of Limonoids Isolated from Chisocheton Plants” (Current Issues in Molecular Biology, 2024):
Like-named read-outs stand apart in the source and are kept apart here.

Legend:
TNF-α = experiment: ELISA of TNF-α production in LPS-stimulated THP-1 cells; assay type: cell-based, human; details: for IC50: Homo sapiens, THP-1, 18 h, read-out: TNF-α IC50; for TNF-α SI (selectivity index, CC50/IC50): THP-1 CC50 / TNF-α IC50
IL-6 = experiment: ELISA of IL-6 production in LPS-stimulated THP-1 cells; assay type: cell-based, human; details: Homo sapiens, THP-1, 18 h, LPS-stimulated (10 ng/mL) THP-1 cells, 1, 5, 10, 20 µM, 18 h
Description: (§1) The logarithmic growth phase of THP-1 cells was achieved by seeding in 96-well plates at a density of 5 × 10^4 cells/well and differentiated for 24 h in the presence of PMA (0.5 μM solution in medium). After 24 h of incubation, the culture medium was removed from the 96-well plate and the cells were washed with PBS. […] The cells were pretreated with 17 limonoids at the corresponding concentration for 1 h, followed by the addition of LPS (10 ng/mL) and then incubation at 37 °C for 18 h. Finally, 50 μL of each culture supernatant solution was taken to determine the concentrations of IL-6, MCP-1, and IL-1β using the corresponding commercially available human ELISA kits following the manufacturer’s instructions. The analyte concentration in the supernatant was measured in pg/mL, and the inhibition level was expressed as a fold change compared to the LPS (−) control group. To determine the IC50 value, the dose-response data were normalized to the LPS-stimulated-only group, and the percentage of inhibition was calculated using the following formula: % Inhibition=(Absorbance of LPS+ control−Absorbance of compound treatment with LPS)/(Absorbance of LPS+ control−Absorbance of LPS− control)×100
(§2) Furthermore, the % inhibition data were interpolated into linear equations to determine the IC50 values.

[1] = Cell viability by CCK-8, THP-1 cells; assay type: cell-based; details: human, PMA-differentiated THP-1 cells; for CC50 at 18 h: concentration causing 50% cytotoxicity against THP-1 cells
Description: (§3) The viability of HEK-Blue^TM hTLR4, […], and THP-1 cells was evaluated using the Dojindo Cell Counting Kit-8 (CCK-8) according to the manufacturer’s instructions. The viability of HEK-Blue^TM hTLR4 and THP-1 cells was assessed under identical conditions to the corresponding assay treatments. HEK-Blue^TM hTLR4 cells (2 × 10^4 cells/well) were seeded in 96-well plates and serum-starved for 24 h at 37 °C in a 5% CO2 atmosphere. After incubation, the culture medium was aspirated, and the cells were washed with saline. High-glucose D-MEM supplemented with 0.1% FBS and 1% penicillin–streptomycin was added and pretreated with or without the 17 limonoids at a concentration of 20 µM for 1 h, followed by LPS addition at a concentration of 10 ng/mL. After 18 h of incubation, a 10% (v/v) CCK-8 solution was added to each well and incubated at 37 °C for 1 h, and cell viability was calculated.
The THP-1 cells at 5 × 10^4 cells/well were differentiated for 24 h in the presence of PMA (0.5 μM solution in medium). After 24 h of incubation, the culture medium was removed from the 96-well plate and the cells were washed with PBS. Fresh RPMI-1640 medium supplemented with 0.1% FBS and 1% penicillin–streptomycin was added to each well and incubated at 37 °C for overnight. The cells were pretreated with 17 limonoids at the corresponding concentration for 1 h followed by the addition of LPS (10 ng/mL) and incubated at 37 °C for 18 h. Furthermore, CCK-8 solution was added to each well with a final concentration was 10% (v/v) and incubated at 37 °C. After 1 h, the absorbance of each well was measured at […] by using a microplate reader (BioTek Cytation 5 Cell Imaging Multimode Reader). Cell viability was calculated using the following formula: % Cell viability=(Absorbance of sample−Absorbance of Background)/(Absorbance of control−Absorbance of Background)×100 where the absorbance of the sample is the absorbance of cells treated by the compound with or without LPS, the absorbance of the control is the absorbance of LPS (−)-treated cells, and the background absorbance is the absorbance of a well containing only the medium. The results were expressed as 100% cell viability.

MCP-1 = experiment: ELISA of MCP-1 production in LPS-stimulated THP-1 cells; assay type: cell-based, human; details: Homo sapiens; LPS-stimulated (10 ng/mL) THP-1 cells, 1, 5, 10, 20 µM, 18 h
Description: as §1, §2

in vitro = assay type: cell-based; details: mouse
Description: as §3

phosphorylated-p38 MAPK = experiment: Western blotting of phosphorylated-p38 MAPK in LPS-stimulated THP-1 cells; assay type: cell-based, human; details: 10 µM, LPS 10 ng/mL, 18 h, compared to LPS (+) group
Description: THP-1 cells were seeded at a density of 1 × 10^6 cells/well in 24-well plates. The cells were then pretreated with a concentration of 10 µM of compounds 3, 5, 9, or 15 for 1 h. Subsequently, LPS (10 ng/mL) was added to the cells, which were incubated for 18 h. The protein concentrations were determined using a bicinchoninic acid (BCA) assay kit.
For Western blot analysis, proteins were separated by SDS-PAGE and transferred onto a polyvinylidene fluoride (PVDF) membrane. The membranes were blocked with 2.5% BSA in Tris-buffered saline-Tween (TBST) for 1 h at room temperature. After three washes with TBST, the membranes were incubated with a diluted primary antibody solution (anti-phosphorylated-p38 MAPK or anti-p38 MAPK) at a 1:1000 dilution for 1 h at room temperature. After three washes with TBS-T, the membranes were incubated with a secondary antibody conjugated to horseradish peroxidase (HRP; 1:4000 dilution) for 30 min at room temperature and subsequently detected by chemiluminescence. Finally, the bands were visualized and quantified using an ImageQuant 800 GxP system (Cytiva, MA, USA). The results were expressed as ratios relative to the reference protein β-actin.

[2] = Cell viability by CCK-8, HEK-Blue hTLR4 cells; assay type: cell-based; details: human
Description: as §3

[3] = test system: TNF-α, IL-6, IL-1β, and MCP-1; experiment: ELISA of pro-inflammatory markers overall (TNF-α, IL-6, IL-1β, MCP-1) in LPS-stimulated THP-1 cells; assay type: cell-based; details: Homo sapiens, read-out: Overall IC50 values for the evaluated pro-inflammatory markers
Description: The logarithmic growth phase of THP-1 cells was achieved by seeding in 96-well plates at a density of 5 × 10^4 cells/well and differentiated for 24 h in the presence of PMA (0.5 μM solution in medium). After 24 h of incubation, the culture medium was removed from the 96-well plate and the cells were washed with PBS. Fresh RPMI-1640 medium supplemented with 0.1% FBS and 1% Penicillin–Streptomycin was added to each well and incubated at 37 °C overnight. The cells were pretreated with 17 limonoids at the corresponding concentration for 1 h, followed by the addition of LPS (10 ng/mL) and then incubation at 37 °C for 18 h. Finally, 50 μL of each culture supernatant solution was taken to determine the concentrations of IL-6, MCP-1, and IL-1β using the corresponding commercially available human ELISA kits following the manufacturer’s instructions. The analyte concentration in the supernatant was measured in pg/mL, and the inhibition level was expressed as a fold change compared to the LPS (−) control group. To determine the IC50 value, the dose-response data were normalized to the LPS-stimulated-only group, and the percentage of inhibition was calculated using the following formula: % Inhibition=(Absorbance of LPS+ control−Absorbance of compound treatment with LPS)/(Absorbance of LPS+ control−Absorbance of LPS− control)×100
as §2

[4] = test system: TLR4-dependent NF-kB activation in HEK-Blue hTLR4 cells; experiment: SEAP reporter gene assay, antagonist effect on LPS-stimulated TLR4-dependent NF-κB activation; assay type: cell-based, human; details: 20 µM, LPS 10 ng/mL, 18 h, vs. LPS stimulated-only group
Description: The SEAP Reporter Gene Assay was conducted as previously described. HEK-Blue^TM hTLR4 cells (2 × 10^4 cells/well) were seeded in 96-well plates and were serum-starved for 24 h at 37 °C in a 5% carbon dioxide atmosphere. After incubation, the culture medium was aspirated, and the cells were washed with saline. High-glucose D-MEM supplemented with 0.1% FBS and 1% penicillin-streptomycin was added and treated with or without the 17 limonoids at a concentration of 20 µM for 1 h, followed by LPS addition at a concentration of 10 ng/mL for the LPS-stimulated group. After incubation at 37 °C for 18 h, the supernatants were collected and PNPP in PBS solution (0.8 mM, 100 μL) was added, followed by 4 h of shading at 25 °C. The optical density (OD) of the samples was measured at 405 nm using a microplate reader (BioTek Cytation 5 Cell Imaging Multimode Reader, Agilent Technologies, Santa Clara, CA, USA).

[5] = LPS-stimulated (10 ng/mL) THP-1 cells, 1, 5, 10, 20 µM, 18 h
[6] = LPS 10 ng/mL, read-out: Viability Cell (%) THP-1 LPS-Induced (10 ng/mL)
[7] = without LPS, read-out: Viability Cell (%) THP-1 Without LPS
[8] = Viability Cell (%) HEK-Blue hTLR4 LPS-Induced (10 ng/mL)
[9] = Viability Cell (%) HEK-Blue hTLR4 Without LPS

| IC50 (MCP-1) [µM] | Structure (SMILES) | IC50 (TNF-α; [5]) [µM] | IC50 (IL-6) [µM] | CC50 at 18 h [1] [µM] | viability at 5 µM (in vitro) [%] | viability at 10 µM (in vitro) [%] | viability at 20 µM (in vitro) [%] | IC50 (TNF-α) [µM] | TNF-α SI (selectivity index, CC50/IC50) (TNF-α) | Effect on p-p38 MAPK levels (phosphorylated-p38 MAPK) | viability at 18 h, 10 µM [1, 6] [%] | viability at 18 h, 10 µM [1, 7] [%] | viability at 18 h, 20 µM [2, 8] [%] | viability at 18 h, 20 µM [2, 9] [%] | IC50 [3] [µM] | Inhibition of SEAP release (NF-κB activity inhibition) [4] |
| --- | --- | --- | --- | --- | --- | --- | --- | --- | --- | --- | --- | --- | --- | --- | --- | --- |
| 0.5 | C[C@@H]1C[C@H]2[C@@H]3CCC4=CC(=O)C=C[C@]4(C)[C@@]3(F)[C@@H](O)C[C@]2(C)[C@@]1(O)C(=O)CO [Dex, dexamethasone, reference compound] | 2.17 | 0.72 | 28.2 |  |  |  |  |  |  |  |  |  |  |  |  |
|  | C[C@]12C3=CC[C@@H](c4ccoc4)[C@]3(C)CC[C@@H]1[C@@]1(C)C(=O)C=C[C@@]3(C)CO[C@@H]([C@H]2O)[C@H]13 [Compound 12, ceramicine B] |  |  | 36.9 | > 99.9 | > 99.9 | 89.4 ± 6.9 | 13.9 | 2.66 | significantly suppressed | 96.7 ± 4.3 | > 99.9 | > 99.9 | > 99.9 |  |  |
|  | CC(=O)O[C@H]1[C@@H](OC(C)=O)[C@]2(C)[C@H](CC[C@@]3(C)[C@H](c4ccoc4)C[C@H]4O[C@@]423)[C@@]2(C)C=CC(=O)C(C)(C)[C@H]12 [Compound 4, 6α-(acetoxy)-14β,15β-epoxyazadirone] | 5.6 | 1.64 | 38 | 85 ± 5.66 | 85.9 ± 5.34 | 82.4 ± 1.15 |  | 6.78 | significantly suppressed | > 99.9 | > 99.9 | > 99.9 | > 99.9 | < 20 |  |
|  | CC(=O)O[C@@H]1C[C@]2(C)C(=CC[C@H]2c2ccoc2)[C@@]2(C)[C@H]1[C@@]1(C)C=CC(=O)C(C)(C)[C@@H]1C[C@H]2OC(C)=O [Compound 11, 11α-acetoxyazadirone] |  |  |  | 90.1 ± 7.88 | 79 ± 1.58 | 78.9 ± 2.21 |  |  |  | > 99.9 | > 99.9 | 9.84 ± 7.34 | 52.6 ± 4.74 |  | significantly inhibited SEAP release |
